Key:
[1] = test system: Scenedesmus HPPD (SEQ ID NO: 4); experiment: In vitro HPPD activity assay, tolerance index; format: biochemical, Scenedesmus obliquus; conditions: normalized on Arabidopsis wild-type HPPD
Experimental: (§1) The activity assay for HPPD is based on the analysis of homogentisic acid by reversed phase HPLC.
(§2) The assay mixture can contain 150 mM potassium phosphate buffer pH 7.0, 50 mM L-ascorbic acid, 100 μM Catalase (Sigma-Aldrich), 1 μM FeSO4 and 0.2 units of purified HPPD enzyme in a total volume of 505 μl. 1 unit is defined as the amount of enzyme that is required to produce 1 nmol of HGA per minute at 20° C.
(§3) The reaction is allowed to proceed for 45 min at room temperature. The reaction is stopped by the addition of 50 μl of 4.5 M phosphoric acid. The sample is filtered using a […] pore size PVDF filtration device.
(§4) 5 μl of the cleared sample is analyzed on an UPLC HSS T3 column (particle size 1.8 μm, dimensions 2.1×50 mm; Waters) by isocratic elution using 90% 20 mM NaH2PO4 pH 2.2, 10% methanol (v/v).
(§5) HGA is detected electrochemically at 750 mV (mode: DC; polarity: positive) and quantified by integrating peak areas (Empower software; Waters).
(§6) Inhibitors are dissolved in DMSO (dimethylsulfoxide) to a concentration of 0.5 mM. From this stock solution serial five-fold dilutions are prepared in DMSO, which are used in the assay. The respective inhibitor solution accounts for 1% of the assay volume. Thus, final inhibitor concentrations range from 5 μM to 320 pM, respectively. Activities are normalized by setting the uninhibited enzyme activity to 100%. IC50 values are calculated using non-linear regression.
(§7) Using methods which are described in the above examples or well known in the art, purified, recombinant wildtype HPPD enzymes are characterized with respect to their kinetic properties and sensitivity towards HPPD inhibiting herbicides. Apparent michaelis constants (Km) and maximal reaction velocities (Vmax) are calculated by non-linear regression with the software GraphPad Prism 5 (GraphPad Software, La Jolla, USA) using a substrate inhibition model. […] Weighted means (by standard error) of Km and IC50 values are calculated from at least three independent experiments. The Cheng-Prusoff equation for competitive inhibition (Cheng, Y. C.; Prusoff, W. H. Biochem Pharmacol 1973, 22, 3099-3108) is used to calculate dissociation constants (Ki).
(§8) Field performance of the HPPD enzyme, which is used as a herbicide tolerance trait may depend not only on its lack of sensitivity towards HPPD inhibiting herbicides but also on its activity. To assess the potential performance of a herbicide tolerance trait a tolerance index (TI) is calculated using the following formula: […]
(§9) Easy comparison and ranking of each trait is enabled by normalizing tolerance indexes on Arabidopsis wild-type HPPD.

[2] = test system: Algoriphagus HPPD (SEQ ID NO: 22); experiment: In vitro HPPD activity assay, tolerance index; format: biochemical, Algoriphagus machipongonensis; conditions: normalized on Arabidopsis wild-type HPPD
Experimental: as §1, §2, §3, §4, §5, §6, §7, §8, §9

[3] = test system: Geodermatophilus HPPD (SEQ ID NO: 32); experiment: In vitro HPPD activity assay, tolerance index; format: biochemical, Geodermatophilus obscurus; conditions: normalized on Arabidopsis wild-type HPPD
Experimental: as §1, §2, §3, §4, §5, §6, §7, §8, §9

[4] = test system: Mucilaginibacter HPPD (SEQ ID NO: 28); experiment: In vitro HPPD activity assay, tolerance index; format: biochemical, Mucilaginibacter paludis; conditions: normalized on Arabidopsis wild-type HPPD
Experimental: as §1, §2, §3, §4, §5, §6, §7, §8, §9

[5] = test system: Microscilla HPPD (SEQ ID NO: 20); experiment: In vitro HPPD activity assay, tolerance index; format: biochemical, Microscilla marina; conditions: normalized on Arabidopsis wild-type HPPD
Experimental: as §1, §2, §3, §4, §5, §6, §7, §8, §9

[6] = target: T1, Arabidopsis HPPD (SEQ ID NO: 42) (Arabidopsis thaliana, UniProt P93836); experiment: In vitro HPPD activity assay (HGA by HPLC), wildtype enzyme characterization; format: biochemical; conditions: normalized on Arabidopsis wild-type HPPD; reference enzyme
T1 construct: Arabidopsis (42); His tag; made in house; host or cells: E. coli BL21 (DE3)
T1 sequence (P93836 1-445): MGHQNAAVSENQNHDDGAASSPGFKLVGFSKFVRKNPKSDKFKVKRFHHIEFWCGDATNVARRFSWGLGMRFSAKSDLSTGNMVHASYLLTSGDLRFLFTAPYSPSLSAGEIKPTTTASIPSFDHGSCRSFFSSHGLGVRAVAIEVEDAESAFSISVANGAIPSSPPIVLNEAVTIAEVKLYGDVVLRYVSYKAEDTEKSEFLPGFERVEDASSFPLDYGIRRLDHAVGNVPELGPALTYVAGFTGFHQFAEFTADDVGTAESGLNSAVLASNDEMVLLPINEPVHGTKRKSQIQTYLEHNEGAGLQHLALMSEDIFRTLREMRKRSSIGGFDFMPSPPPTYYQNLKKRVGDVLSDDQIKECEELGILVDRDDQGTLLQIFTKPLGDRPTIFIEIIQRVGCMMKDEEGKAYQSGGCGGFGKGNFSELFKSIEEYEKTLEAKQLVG
Experimental: as §1, §2, §3, §4, §5
as §6, with “Thus, final inhibitor concentrations range from 5 μM to 320 pM, respectively.” left out
as §7, with “experiments.” for “experiments. The Cheng-Prusoff equation for competitive inhibition (Cheng, Y. C.; Prusoff, W. H. Biochem Pharmacol 1973, 22, 3099-3108) is used to calculate dissociation constants (Ki).”
as §8, §9

[7] = test system: Nitritalea HPPD (SEQ ID NO: 14); experiment: In vitro HPPD activity assay, tolerance index; format: biochemical, Nitritalea halalkaliphila; conditions: normalized on Arabidopsis wild-type HPPD
Experimental: as §1, §2, §3, §4, §5, §6, §7, §8, §9

[8] = test system: Belliella HPPD (SEQ ID NO: 12); experiment: In vitro HPPD activity assay, tolerance index; format: biochemical, Belliella baltica; conditions: normalized on Arabidopsis wild-type HPPD
Experimental: as §1, §2, §3, §4, §5, §6, §7, §8, §9

[9] = test system: Herpetosiphon HPPD (SEQ ID NO: 26); experiment: In vitro HPPD activity assay, tolerance index; format: biochemical, Herpetosiphon aurantiacus; conditions: normalized on Arabidopsis wild-type HPPD
Experimental: as §1, §2, §3, §4, §5, §6, §7, §8, §9

[10] = test system: Pontibacter HPPD (SEQ ID NO: 16); experiment: In vitro HPPD activity assay, tolerance index; format: biochemical, Pontibacter sp.; conditions: normalized on Arabidopsis wild-type HPPD
Experimental: as §1, §2, §3, §4, §5, §6, §7, §8, §9

Row | Structure (SMILES) | TI (normalized tolerance index) [1] | TI (normalized tolerance index) [2] | TI (normalized tolerance index) [3] | TI (normalized tolerance index) [4] | TI (normalized tolerance index) [5] | TI (normalized tolerance index) [6] | TI (normalized tolerance index) [7] | TI (normalized tolerance index) [8] | TI (normalized tolerance index) [9] | TI (normalized tolerance index) [10]
1 | COCCOCc1nc(C(F)(F)F)ccc1C(=O)C1=C(O)C2CCC(C2)C1=O (centres unmarked) [Inhibitor 3, 2-hydroxy-3-[2-(2-methoxyethoxymethyl)-6-(trifluoromethyl)pyridine-3-carbonyl]bicyclo[3.2.1]oct-2-en-4-one] | 0.9 | 29 | 7.4 | 6.9 | 6.7 | 1 | 1.1 | 10 | 2 | 1.7
2 | CCS(=O)(=O)c1cc(C(F)(F)F)ccc1C1=C(O)c2ncccc2C(C)(C)S1(=O)=O [Inhibitor 5, 7-[2-ethylsulfonyl-4-(trifluoromethyl)phenyl]-5,5-dimethyl-6,6-dioxo-thiopyrano[4,3-b]pyridin-8-ol] | 0.6 | 24.7 | 5.6 | 5.2 | 17.7 | 1 | 3.2 | 10.6 | 1 | 2.5

Reference: patent US10619138B2, “Herbicide-resistant hydroxyphenylpyruvate dioxygenases” (BASF SE, priority 2013, dated 2020)
